Earlier results on one compound are cited in publication PMC10499419 (Clinical and Translational Science, 2023).

For this data set, the system named is healthy subjects.

On to `CN1C(=O)[C@@H](NC(=O)c2nnc(Cc3ccccc3)[nH]2)COc2ccccc21` [GSK2982772], for which the “Tolerability in healthy subjects” value is recorded as “well‐tolerated”.
